Data reported in the kinase profiling compilation of Christmann-Franck et al. (2016).

Biological target: MYLK (human) (UniProt Q15746)
Experiment: radiometric filter-binding kinase assay

Sequence of MYLK (human) (Q15746 whole entry, looked up): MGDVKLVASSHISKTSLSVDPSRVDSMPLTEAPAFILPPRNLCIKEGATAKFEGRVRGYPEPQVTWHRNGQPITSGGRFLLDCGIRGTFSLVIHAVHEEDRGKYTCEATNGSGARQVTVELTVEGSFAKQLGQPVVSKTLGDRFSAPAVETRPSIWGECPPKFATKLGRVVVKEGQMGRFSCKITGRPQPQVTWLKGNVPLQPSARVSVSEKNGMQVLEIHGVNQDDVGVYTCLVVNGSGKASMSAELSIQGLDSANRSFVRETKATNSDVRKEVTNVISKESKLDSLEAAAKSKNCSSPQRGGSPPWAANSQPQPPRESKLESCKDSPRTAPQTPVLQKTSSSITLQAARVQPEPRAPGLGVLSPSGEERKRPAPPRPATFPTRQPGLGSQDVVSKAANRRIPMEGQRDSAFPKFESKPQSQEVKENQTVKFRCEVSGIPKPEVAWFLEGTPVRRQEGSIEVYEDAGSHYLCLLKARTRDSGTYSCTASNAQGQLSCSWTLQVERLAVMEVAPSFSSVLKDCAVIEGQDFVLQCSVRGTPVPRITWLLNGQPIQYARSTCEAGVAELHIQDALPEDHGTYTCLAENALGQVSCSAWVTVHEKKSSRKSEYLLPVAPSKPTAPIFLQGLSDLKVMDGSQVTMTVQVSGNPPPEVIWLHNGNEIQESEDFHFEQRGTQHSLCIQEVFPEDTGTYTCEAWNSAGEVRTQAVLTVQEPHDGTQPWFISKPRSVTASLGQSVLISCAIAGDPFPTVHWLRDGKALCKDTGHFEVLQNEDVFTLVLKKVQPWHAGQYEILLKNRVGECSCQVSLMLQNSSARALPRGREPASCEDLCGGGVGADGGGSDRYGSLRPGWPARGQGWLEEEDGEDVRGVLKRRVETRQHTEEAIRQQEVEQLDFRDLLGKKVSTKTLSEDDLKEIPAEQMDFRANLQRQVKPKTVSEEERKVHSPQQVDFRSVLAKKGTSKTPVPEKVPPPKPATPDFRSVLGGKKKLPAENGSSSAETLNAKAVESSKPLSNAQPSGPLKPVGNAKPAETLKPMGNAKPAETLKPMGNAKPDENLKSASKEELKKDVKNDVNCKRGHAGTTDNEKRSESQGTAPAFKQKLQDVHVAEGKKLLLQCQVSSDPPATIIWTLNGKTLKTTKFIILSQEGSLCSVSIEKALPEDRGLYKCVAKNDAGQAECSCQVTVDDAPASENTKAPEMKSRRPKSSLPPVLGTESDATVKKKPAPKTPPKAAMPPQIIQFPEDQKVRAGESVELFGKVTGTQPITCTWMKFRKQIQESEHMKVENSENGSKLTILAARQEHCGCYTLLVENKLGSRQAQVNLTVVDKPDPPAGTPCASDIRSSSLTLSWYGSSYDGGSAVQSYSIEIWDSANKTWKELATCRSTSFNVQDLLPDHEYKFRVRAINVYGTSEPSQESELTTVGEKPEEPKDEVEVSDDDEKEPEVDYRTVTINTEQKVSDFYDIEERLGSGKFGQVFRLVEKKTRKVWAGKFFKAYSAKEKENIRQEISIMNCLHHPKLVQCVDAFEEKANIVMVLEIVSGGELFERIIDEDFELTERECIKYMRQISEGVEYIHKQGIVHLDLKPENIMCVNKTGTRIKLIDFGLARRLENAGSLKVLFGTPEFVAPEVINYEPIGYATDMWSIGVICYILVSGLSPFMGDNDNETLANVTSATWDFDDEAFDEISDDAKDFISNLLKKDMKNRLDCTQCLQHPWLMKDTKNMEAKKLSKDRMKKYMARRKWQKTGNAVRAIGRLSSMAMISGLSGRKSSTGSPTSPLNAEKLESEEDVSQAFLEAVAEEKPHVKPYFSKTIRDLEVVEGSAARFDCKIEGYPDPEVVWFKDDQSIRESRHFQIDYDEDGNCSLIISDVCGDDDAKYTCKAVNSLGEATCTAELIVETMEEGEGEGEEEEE

SMILES	residual activity (compound 1.0 µM)	residual activity (compound 10.0 µM)	residual activity (compound 0.1 µM)	residual activity (compound 0.001 µM)	residual activity (compound 0.01 µM)	residual activity (compound 5.0 µM)
COc1cc2ncn(-c3cc(OCc4ccccc4S(C)(=O)=O)c(C#N)s3)c2cc1OC	89%	61%				
C/C(=C1/C(=O)Nc2ccc(NC(N)=O)cc21)c1ccc[nH]1			65%	90%	89%	
O=C1Nc2nc(-c3c(O)cccc3OCC3CC3)cc(C3CCCNC3)c2CO1 (centres undefined)	76%	37%				
O=c1c(O)c(-c2ccc(O)c(O)c2)oc2cc(O)c(O)c(O)c12	87%	23%				
CCc1cncnc1N1CCN(Cc2nc3cc(C(F)(F)F)ccc3[nH]2)CC1	79%	87%	95%			
CN1C(=O)[C@@H](Cc2c[nH]c3ccccc23)NC1=S	83%	81%				
N#Cc1c(C2CCNCC2)cc(-c2c(O)cccc2OCC2CC2)nc1N	70%	25%				
C[C@H]1CCCC(=O)CCC/C=C/c2cc(O)cc(O)c2C(=O)O1	104%	59%				
Cn1c(=O)c2c(ncn2C)n(C)c1=O	91%		90%			
O=C1NC(=S)N[C@@H]1Cc1c[nH]c2ccccc12	70%	94%				

Now from value to compound:

residual activity (compound 1.0 µM)	residual activity (compound 10.0 µM)	residual activity (compound 0.1 µM)	residual activity (compound 0.001 µM)	residual activity (compound 0.01 µM)	residual activity (compound 5.0 µM)	SMILES
92%	74%					Cc1cc(SCc2sc(-c3ccc(C(F)(F)F)cc3)nc2C)ccc1OCC(=O)O
86%	35%					NC(=O)c1ccc(-c2ccc(Oc3cncc4sc(-c5nn[nH]n5)cc34)cc2)cc1
11%	1%	54%				NC(=O)Nc1ccc2c(c1)/C(=C/c1cc(-c3cccnc3)c[nH]1)C(=O)N2
	74%					Cc1ccc2c(c1)C(=O)[C@@]1(O)CCN(c3ccccc3)C1=N2
53%	17%	98%				NC(=O)c1cc2c(-c3cccc(-c4ccccc4)c3)cnc(N)c2s1
43%	5%	51%				Cc1ccc(Sc2cnc(Nc3cccc(Br)n3)s2)cc1C(=O)N1CCN(C(=O)CN)CC1
102%	87%	87%				O=C(O)c1ccc(-c2c[nH]c3ncc(-c4ccccc4)cc23)cc1C1CCCC1
27%	10%	82%				O=C(Nc1ccccc1-c1cn2c(CN3CCNCC3)csc2n1)c1cnc2ccccc2n1
112%	99%					O=C(O)c1cc(N=Nc2ccc(S(=O)(=O)Nc3ccccn3)cc2)ccc1O
89%		104%				Cc1cccc(-c2nn(C(=S)Nc3ccccc3)cc2-c2ccnc3ccccc23)n1
85%	72%	87%				NC1(c2ccc(-c3nc4ccn5c(=O)[nH]nc5c4cc3-c3ccccc3)cc2)CCC1
74%	87%				51%	Oc1ccc2ccccc2c1SSc1c(O)ccc2ccccc12
94%	42%					FC(F)(F)c1ccc(-c2ccc(Oc3cncc4sc(-c5nn[nH]n5)cc34)cc2)cc1
